Measurements reported in US11813250B2, “Topical formulations containing mTOR inhibitors” (Shanghai Aucta Pharmaceuticals Co., Ltd., priority 2020, dated 2023).
In brackets after ≈: the same amount, converted by molar mass. Like-named read-outs stand apart in the source and are kept apart here.

Tests used:
[1] = Solubility in topical solvents; format: physicochemical; details: organic solvent or mixture
Experimental: This example evaluated sirolimus and everolimus solubility and stability in various FDA approved topical solvents and co-solvent systems such as diethylene glycol monoethyl ether (Transcutol® P as manufactured by Gattefosse), N-Methyl-2-pyrrolidone (NMP), dimethyl sulfoxide (DMSO), ethanol, Caprylocaproyl polyoxyl-8 glycerides (Labrasol® as manufactured by Gattefosse) and propylene carbonate combined or alone.
The melting point of DMSO is 19° C. (66° F.; 292 K), thus it will freeze under refrigerated condition.

[2] = Everolimus isomer C stability study in various solvents at 50° C.; format: physicochemical
Experimental: The formulation of this example was prepared in substantially the same manner as the composition of Example 1.
Experiments were performed to study the stability of everolimus in Transcutol P, NMP, DMSO and propylene carbonate under 40° C. at concentration of 20 mg/ml and everolimus in Transcutol P, NMP, DMSO, ethanol, Labrasol and propylene carbonate under 50° C. at concentration of 80 mg/ml. […] DMSO, NMP and propylene carbonate stabilized sirolimus and everolimus and could be used as dissolving agents together or separately.
Everolimus concentrations are at 80 mg/ml in the solvent and co-solvent systems. The said solution was stored at 50° C. oven and samples were evaluated at time 0, 1 h, 2 h and 4 h.

[3] = cited from earlier work
[4] = Seco-Rapamycin in various solvents under 40° C. for 24 hr; format: physicochemical; details: for percentage of Seco-Rapamycin in the overall amount of sirolimus: 40° C.
Experimental: (§1) Sirolimus concentrations are at 20 mg/ml in the solvent and co-solvent systems. The solution was stored at 40° C. oven and samples were evaluated at time 0, 1, 4 and 24 hours with HPLC analysis.
Seco-Rapamycin is a major decomposition product of sirolimus, the open ring conformation of Rapamycin (sirolimus), is also quantitated in the solvent systems. […] The initial concentrations of Seco-Rapamycin were undetectable in the tested samples. Less than 0.5% of sirolimus converted or degraded to Seco-Rapamycin in Propylene Carbonate, DMSO and NMP.

[5] = Sirolimus isomer C stability in various solvents under 40° C. for 24 hr (HPLC); format: physicochemical
Experimental: as §1

[6] = DMSO, room temperature, read-out: solubility in DMSO
[7] = N-Methyl-2-pyrrolidone (NMP), both room temperature and refrigerated condition, read-out: solubility in NMP
[8] = Transcutol P (diethylene glycol monoethyl ether), both room temperature and refrigerated condition, read-out: solubility in Transcutol P
[9] = propylene carbonate, both room temperature and refrigerated condition, read-out: solubility in propylene carbonate

## CO[C@H]1C[C@@H]2CC[C@@H](C)[C@@](O)(O2)C(=O)C(=O)N2CCCC[C@H]2C(=O)O[C@H]([C@H](C)C[C@@H]2CC[C@@H](OCCO)[C@H](OC)C2)CC(=O)[C@H](C)/C=C(\C)[C@@H](O)[C@@H](OC)C(=O)[C@H](C)C[C@H](C)/C=C/C=C/C=C/1C [Everolimus]
[1]; [6]
  solubility: > 200 mg/mL
[1]; [7]
  solubility: > 100 mg/mL
[1]; [8]
  solubility: > 100 mg/mL
[1]; [9]
  solubility: > 100 mg/mL
[2]; everolimus 80 mg/ml in DMSO, 0 h
  Isomer C level (%): 1.63%
[2]; everolimus 80 mg/ml in DMSO, 1 h
  Isomer C level (%): 1.67%
[2]; everolimus 80 mg/ml in DMSO, 2 h
  Isomer C level (%): 1.73%
[2]; everolimus 80 mg/ml in DMSO, 4 h
  Isomer C level (%): 1.86%
[2]; everolimus 80 mg/ml in Ethanol, 0 h
  Isomer C level (%): 1.85%
[2]; everolimus 80 mg/ml in Ethanol, 1 h
  Isomer C level (%): 2.66%
[2]; everolimus 80 mg/ml in Ethanol, 2 h
  Isomer C level (%): 3.81%
[2]; everolimus 80 mg/ml in Ethanol, 4 h
  Isomer C level (%): 5.40%
[2]; everolimus 80 mg/ml in NMP, 0 h
  Isomer C level (%): 1.62%
[2]; everolimus 80 mg/ml in NMP, 1 h
  Isomer C level (%): 1.76%
[2]; everolimus 80 mg/ml in NMP, 2 h
  Isomer C level (%): 1.86%
[2]; everolimus 80 mg/ml in NMP, 4 h
  Isomer C level (%): 1.99%
[2]; everolimus 80 mg/ml in Propylene Carbonate, 0 h
  Isomer C level (%): 1.63%
[2]; everolimus 80 mg/ml in Propylene Carbonate, 1 h
  Isomer C level (%): 1.84%
[2]; everolimus 80 mg/ml in Propylene Carbonate, 2 h
  Isomer C level (%): 2.06%
[2]; everolimus 80 mg/ml in Propylene Carbonate, 4 h
  Isomer C level (%): 2.47%
[2]; everolimus 80 mg/ml in Transcutol P, 0 h
  Isomer C level (%): 1.71%
[2]; everolimus 80 mg/ml in Transcutol P, 1 h
  Isomer C level (%): 3.78%
[2]; everolimus 80 mg/ml in Transcutol P, 2 h
  Isomer C level (%): 5.26%
[2]; everolimus 80 mg/ml in Transcutol P, 4 h
  Isomer C level (%): 6.43%
[2]; from 0 h to 4 h in DMSO, propylene carbonate and NMP, 80 mg/ml
  increase of the assay of everolimus isomer C: less than 1.5%
[3]
  water solubility: poorly water-soluble

## CO[C@H]1C[C@@H]2CC[C@@H](C)[C@@](O)(O2)C(=O)C(=O)N2CCCC[C@H]2C(=O)O[C@H]([C@H](C)C[C@@H]2CC[C@@H](O)[C@H](OC)C2)CC(=O)[C@H](C)/C=C(\C)[C@@H](O)[C@@H](OC)C(=O)[C@H](C)C[C@H](C)/C=C/C=C/C=C/1C [Sirolimus]
[1]; [6]
  solubility: > 100 mg/mL
[1]; [7]
  solubility: > 100 mg/mL
[1]; [8]
  solubility: > 80 mg/mL
[1]; [9]
  solubility: ~30 mg/mL (≈ 32.8 mM)
[4]; in the tested samples, time 0
  initial concentrations of Seco-Rapamycin: undetectable
[4]; sirolimus in 50% NMP + 50% DMSO, 4 h
  percentage of Seco-Rapamycin in the overall amount of sirolimus: 0.09%
[4]; sirolimus in 50% NMP + 50% DMSO, 24 h
  percentage of Seco-Rapamycin in the overall amount of sirolimus: 0.13%
[4]; sirolimus in DMSO, 4 h
  percentage of Seco-Rapamycin in the overall amount of sirolimus: 0.23%
[4]; sirolimus in DMSO, 24 h
  percentage of Seco-Rapamycin in the overall amount of sirolimus: 0.44%
[4]; sirolimus in NMP, 4 h
  percentage of Seco-Rapamycin in the overall amount of sirolimus: 0.12%
[4]; sirolimus in NMP, 24 h
  percentage of Seco-Rapamycin in the overall amount of sirolimus: 0.26%
[4]; sirolimus in Propylene Carbonate, 24 h
  percentage of Seco-Rapamycin in the overall amount of sirolimus: 0.08%
[4]; sirolimus in Transcutol P, 0 h
  percentage of Seco-Rapamycin in the overall amount of sirolimus: 0.20%
[4]; sirolimus in Transcutol P, 1 h
  percentage of Seco-Rapamycin in the overall amount of sirolimus: 0.23%
[4]; sirolimus in Transcutol P, 4 h
  percentage of Seco-Rapamycin in the overall amount of sirolimus: 0.76%
[4]; sirolimus in Transcutol P, 24 h
  percentage of Seco-Rapamycin in the overall amount of sirolimus: 1.06%
[3]
  water solubility: poorly water-soluble
[5]; in NMP, DMSO and propylene carbonate within 24 hours
  sirolimus converted to isomer C after time 0: less than 1.5%
[5]; sirolimus 20 mg/ml in 50% NMP + 50% DMSO, 0 h
  Isomer C level (%): 1.07%
[5]; sirolimus 20 mg/ml in 50% NMP + 50% DMSO, 1 h
  Isomer C level (%): 1.15%
[5]; sirolimus 20 mg/ml in 50% NMP + 50% DMSO, 4 h
  Isomer C level (%): 1.46%
[5]; sirolimus 20 mg/ml in 50% NMP + 50% DMSO, 24 h
  Isomer C level (%): 1.46%
[5]; sirolimus 20 mg/ml in DMSO, 0 h
  Isomer C level (%): 1.51%
[5]; sirolimus 20 mg/ml in DMSO, 1 h
  Isomer C level (%): 1.23%
[5]; sirolimus 20 mg/ml in DMSO, 4 h
  Isomer C level (%): 1.72%
[5]; sirolimus 20 mg/ml in DMSO, 24 h
  Isomer C level (%): 2.50%
[5]; sirolimus 20 mg/ml in NMP, 0 h
  Isomer C level (%): 1.00%
[5]; sirolimus 20 mg/ml in NMP, 1 h
  Isomer C level (%): 1.02%
[5]; sirolimus 20 mg/ml in NMP, 4 h
  Isomer C level (%): 1.21%
[5]; sirolimus 20 mg/ml in NMP, 24 h
  Isomer C level (%): 1.46%
[5]; sirolimus 20 mg/ml in Propylene Carbonate, 0 h
  Isomer C level (%): 1.12%
[5]; sirolimus 20 mg/ml in Propylene Carbonate, 1 h
  Isomer C level (%): 1.12%
[5]; sirolimus 20 mg/ml in Propylene Carbonate, 4 h
  Isomer C level (%): 1.46%
[5]; sirolimus 20 mg/ml in Propylene Carbonate, 24 h
  Isomer C level (%): 2.77%
[5]; sirolimus 20 mg/ml in Transcutol P, 0 h
  Isomer C level (%): 4.93%
[5]; sirolimus 20 mg/ml in Transcutol P, 1 h
  Isomer C level (%): 7.11%
[5]; sirolimus 20 mg/ml in Transcutol P, 4 h
  Isomer C level (%): 8.14%
[5]; sirolimus 20 mg/ml in Transcutol P, 24 h
  Isomer C level (%): 8.18%
